Experimental data published in article PMC5967881 (Journal of medicinal chemistry, 2017).
pEC50: −log10 of the molar value. “And” between values parts separate entries of the source, which are not always exact repeats. Equal values may be shown once. Read-outs that look alike come from different tables or passages of the source.

Assays:
AM2-S31N proton channel = AM2-S31N proton channel (Influenza A virus, UniProt P0DOF5, S31N); assay type: biochemical; settings: pH 5.5, 100 µM
[1] = system: A/Washington/29/2009 (H1N1); assay: microbe, parasite or virus in culture; assay type: cell-based; settings: Influenza A virus, H1N1, read-out: EC50 against A/Washington/29/2009 (H1N1)
[2] = system: A/Denmark/528/2009 (H1N1); assay: microbe, parasite or virus in culture; assay type: cell-based; settings: Influenza A virus, H1N1, read-out: EC50 against A/Denmark/528/2009 (H1N1)

| Compound | Electrophysiological TEVC assay (% S31N channel inhibition) (AM2-S31N proton channel; 100 µM) | other results |
| --- | --- | --- |
| Clc1cc(-c2cc(CNC34CC5CC(CC(C5)C3)C4)no2)c(Cl)s1 [9u, N-((5-(2,5-dichlorothiophen-3-yl)isoxazol-3-yl)methyl)adamantan-1-amine] | > 70% |  |
| CSc1ccccc1-c1cc(CNC23CC4CC(CC(O)(C4)C2)C3)no1 [9f, 3-[({5-[2-(methylsulfanyl)phenyl]-1,2-oxazol-3-yl}methyl)amino]adamantan-1-ol] | > 70% and > 90% |  |
| COc1sccc1-c1cc(CNC23CC4CC(CC(C4)C2)C3)no1 [9t, N-((5-(2-methoxythiophen-3-yl)isoxazol-3-yl)methyl)adamantan-1-amine] | > 70% |  |
| c1ccc(-c2cc(CNC34CC5CC(CC(C5)C3)C4)no2)cc1 [9a, N-[(5-phenyl-1,2-oxazol-3-yl)methyl]adamantan-1-amine] | 91.2 ± 1.5% |  |
| 3-({[5-(3-methoxythiophen-2-yl)-1,2-oxazol-3-yl]methyl}amino)adamantan-1-ol [9s] | 83.8 ± 3.3% |  |
| OC12CC3CC(C1)CC(NCc1cc(-c4cc(Cl)sc4Cl)on1)(C3)C2 [9v, 3-({[5-(2,5-dichlorothiophen-3-yl)-1,2-oxazol-3-yl]methyl}amino)adamantan-1-ol] | > 70% |  |
| Clc1cc(-c2cc(CNC34CC5CC(CC(C5)C3)C4)no2)cs1 [9r, N-((5-(5-chlorothiophen-3-yl)isoxazol-3-yl)methyl)adamantan-1-amine] | > 70% |  |
| Clc1ccc(-c2cc(CNC34CC5CC(CC(C5)C3)C4)no2)s1 [9q, N-((5-(5-chlorothiophen-2-yl)isoxazol-3-yl)methyl)adamantan-1-amine] | > 70% | pEC50 [1]: 6.70 to 7.00; pEC50 [2]: 6.70 to 7.00 |
| N-((5-(2-(methylsulfonyl)phenyl)isoxazol-3-yl)methyl)adamantan-1-amine [9m] |  | Electrophysiological TEVC assay (% S31N channel inhibition) (AM2-S31N proton channel): 47.4 ± 0.5% |
| OC12CC3CC(C1)CC(NCc1cc(-c4ccccc4Cl)on1)(C3)C2 [9d, 3-({[5-(2-chlorophenyl)-1,2-oxazol-3-yl]methyl}amino)adamantan-1-ol] | > 70% |  |
| Oc1ccccc1-c1cc(CNC23CC4CC(CC(C4)C2)C3)no1 [9h, 2-(3-(((adamantan-1-yl)amino)methyl)isoxazol-5-yl)phenol] | > 70% |  |
